Test results from PubChem BioAssay (NCI).
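1) Cells in 96-well plates. 2) Compound, 48 h, 5 concentrations. 3) Linear interpolation between surrounding doses. 4) Unreached endpoint = highest concentration. GI50 is the concentration that inhibits growth by half. TGI marks complete inhibition of growth.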

Key:
Experiment in all cases: NCI anticancer screen, dose series, 48 h
K-562 leukemia = system: K-562 leukemia
MCF7 breast = system: MCF7 breast
NCI/ADR-RES ovarian = system: NCI/ADR-RES ovarian
OVCAR-3 ovarian = system: OVCAR-3 ovarian
PC-3 prostate = system: PC-3 prostate
RPMI-8226 leukemia = system: RPMI-8226 leukemia
SK-MEL-28 melanoma = system: SK-MEL-28 melanoma
SN12C renal = system: SN12C renal
SW-620 colon = system: SW-620 colon
U251 CNS = system: U251 CNS

SMILES | TGI (K-562 leukemia) | TGI (MCF7 breast) | TGI (NCI/ADR-RES ovarian) | TGI (OVCAR-3 ovarian) | TGI (PC-3 prostate) | TGI (RPMI-8226 leukemia) | TGI (SK-MEL-28 melanoma) | TGI (SN12C renal) | TGI (SW-620 colon) | TGI (U251 CNS) | GI50 (RPMI-8226 leukemia) | GI50 (SK-MEL-28 melanoma) | GI50 (SW-620 colon)
O=C1c2ccccc2-c2nnc(-c3ccc(Cl)cc3)cc21 | > 10 µM | > 10 µM | > 10 µM | > 10 µM | > 10 µM | > 10 µM | > 10 µM | > 10 µM | > 10 µM | > 10 µM |  |  | 
O=C(Cn1c(=O)oc2ccc(C(=O)c3ccccc3Cl)cc21)c1ccc([N+](=O)[O-])cc1 | 83 µM | 89.1 µM | > 100 µM | 59.4 µM | > 100 µM | 77.2 µM | > 100 µM | 65.5 µM | > 100 µM | > 100 µM |  |  | 
CNc1ncnc2c1nnn2C | > 100 µM | > 100 µM | > 100 µM | > 100 µM | > 100 µM | > 100 µM | > 100 µM | > 100 µM | > 100 µM | > 100 µM |  |  | 
CN1CCN(/C(N)=C(\C#N)C(=O)Nc2ccccc2)CC1 | > 100 µM | > 100 µM | > 100 µM | > 100 µM | > 100 µM | > 100 µM | > 100 µM | > 100 µM | > 100 µM | > 100 µM |  |  | 
CCCCCCCCCCCCCCCCCCOc1ccc(/C=C/C2=[N+](CCCl)CCO2)cc1 | > 100 µM | > 100 µM | > 100 µM | > 100 µM | > 100 µM | > 100 µM | > 100 µM | > 100 µM | > 100 µM | > 100 µM |  |  | 
O=[N+]([O-])c1ccc2nc(/C=C(\O)c3ccccc3)c(/C=C(\O)c3ccccc3)nc2c1 | > 100 µM | > 100 µM | > 89 µM | 31.3 µM | > 100 µM | 61.7 µM | > 100 µM | > 100 µM | 61.4 µM | 22.9 µM | 5.21 µM | 8.3 µM | 6.11 µM
NC(=O)CCC(NC(=O)c1cccc2c(=O)c3ccccc3[nH]c12)C(=O)O (stereo not drawn) | > 100 µM | > 100 µM | > 100 µM | > 100 µM | > 100 µM | > 100 µM | > 100 µM | > 100 µM | > 100 µM | > 100 µM |  |  | 
CCOC(=O)C1=CC(C)(C(=O)OCC)Nc2c(nc(SC)n(C)c2=O)N1 (stereo not drawn) | > 10 µM | > 10 µM | > 10 µM | > 10 µM | > 10 µM | > 10 µM | > 10 µM | > 10 µM | > 10 µM | > 10 µM |  |  | 
CNC(=O)c1ccccc1[S+]1c2cccc3cccc(c23)C(=O)N1C (stereo not drawn) | > 100 µM | > 100 µM | > 100 µM | > 100 µM | > 100 µM | > 100 µM | > 100 µM | > 100 µM | > 100 µM | > 100 µM |  |  | 
COc1ccc(N=N/C(=N/NC(=O)c2cc(Cl)ccc2C(=O)c2ccccc2)c2ccc(N(CCC#N)CCC#N)cc2C)cc1 | > 100 µM | > 100 µM | 59.1 µM | 27.9 µM | 41.4 µM | 44.4 µM | > 100 µM | 47.1 µM | > 100 µM | > 100 µM |  |  | 
CSC1(SC)N2Cc3ccccc3N=C2C1(c1ccccc1)c1ccccc1 | > 100 µM | > 87.9 µM | > 67 µM | 28.3 µM | > 100 µM | 97.1 µM | > 59.5 µM | > 64.1 µM | > 63.7 µM | > 58.9 µM |  |  | 
N#CCSc1c(-c2ccccc2)c(=O)n(-c2ccccc2)c(=S)n1-c1ccccc1 | > 100 µM | > 100 µM | > 100 µM | > 100 µM | > 100 µM | > 100 µM | > 100 µM | > 100 µM | > 100 µM | > 100 µM |  |  | 
COC12OC3CC4(C)C(=CC3OC(OC(C)C1O)C2O)CCC1C4CCC2(C)C(c3ccc(=O)oc3)CCC12O (stereo not drawn) | 0.00718 µM | 0.00432 µM | 0.00258 µM | 0.00639 µM | 0.00214 µM | 0.00409 µM | 0.0434 µM | 0.00153 µM | 0.00731 µM | 0.00277 µM |  |  | 
COc1ccc2oc(=Nc3ccc(F)cc3)c(C(N)=O)cc2c1 | > 100 µM | > 100 µM | > 100 µM | > 100 µM | > 100 µM | > 100 µM | > 100 µM | > 100 µM | > 100 µM | > 100 µM |  |  | 
CC1=Nc2c(C#N)ncn2N=C(C)C1 | > 100 µM | > 100 µM | > 100 µM | > 100 µM | > 100 µM | > 100 µM | > 100 µM | > 100 µM | > 100 µM | > 100 µM |  |  | 
Clc1ccc2nc(CC3CCCC3)[nH]c2c1 | 22.1 µM | 22 µM | 35.6 µM | 22.7 µM | 71 µM | 50.3 µM | 63.9 µM | 36.8 µM | > 100 µM | 36.5 µM |  |  | 
COc1nc2ccc(CNc3ccc(C(=O)O)cc3)cc2nc1OC | > 10 µM | > 10 µM | > 10 µM | > 10 µM | > 10 µM | > 10 µM | > 10 µM | > 10 µM | > 10 µM | > 10 µM |  |  | 
COc1ccc(N2C(N)=C(C#N)C(C#N)(C#N)C2c2cccc([N+](=O)[O-])c2)cc1 (stereo not drawn) | 14.7 µM | 40.2 µM | 43.2 µM | 30.1 µM | 32.4 µM | 42.5 µM | 23.6 µM | 30.8 µM | 26 µM | 31.7 µM |  |  | 

SMILES | TGI (K-562 leukemia) | TGI (MCF7 breast) | TGI (NCI/ADR-RES ovarian) | TGI (OVCAR-3 ovarian) | TGI (PC-3 prostate) | TGI (RPMI-8226 leukemia) | TGI (SK-MEL-28 melanoma) | TGI (SN12C renal) | TGI (SW-620 colon) | TGI (U251 CNS) | GI50 (RPMI-8226 leukemia) | GI50 (SK-MEL-28 melanoma) | GI50 (SW-620 colon)
CCOC(=O)C1C[C@H]2CO[C@H](c3ccccc3)N2C1=O (stereo partly drawn) | > 100 µM | > 100 µM | > 100 µM | > 100 µM | > 100 µM | > 100 µM | > 100 µM | > 100 µM | > 100 µM | > 100 µM |  |  | 
COc1cc2c(cc1OC(=O)c1cc3ccccc3[nH]1)N=C[C@@H]1CCCN1C2=O | 2.83 µM | 13 µM | > 100 µM | 0.818 µM | 6.93 µM | 1.95 µM | 2.21 µM | 0.513 µM | 10.4 µM | 3.52 µM |  |  | 
CCNc1cc2c3c(c1)CCCN3CCC2 | 28.3 µM | 62.9 µM | 52.2 µM | 19.1 µM | 35.6 µM | 57.1 µM | 87.5 µM | 8.63 µM | 55.2 µM | 24.7 µM |  |  | 
CCCCC1(N=[N+]=[N-])C(=O)C2C=CC=C3c4ccccc4N(C1=O)C32 (stereo not drawn) | > 31.6 µM | 28.1 µM | > 31.6 µM | > 31.6 µM | > 31.6 µM | > 31.6 µM | > 100 µM | > 31.6 µM | > 31.6 µM | > 31.6 µM |  |  | 
COC(=O)C(Cc1ccccc1)NC(=O)c1ccc(CNC(=S)NCc2cccc(CNC(=S)NCc3ccccc3)c2)cc1 (stereo not drawn) | > 62.5 µM | > 62.5 µM | > 62.5 µM | > 62.5 µM | > 62.5 µM | > 62.5 µM | > 62.5 µM | > 62.5 µM | > 62.5 µM | > 62.5 µM |  |  | 
N#CCOc1cccc(C2(N3CC=CCC3)CCCCC2)c1 | > 100 µM | > 100 µM | > 100 µM | > 100 µM | > 100 µM | > 100 µM | > 100 µM | > 100 µM | > 100 µM | > 100 µM |  |  | 
CCCC(=O)Nc1cc(/C=C/C(=O)N2CC(CCl)c3c2cc([N+](=O)[O-])c2ccccc32)n(C)c1 (stereo not drawn) | > 100 µM | > 100 µM | > 100 µM | > 100 µM | > 100 µM | > 100 µM | > 100 µM | > 100 µM | > 100 µM | > 100 µM |  |  | 
Cc1nc2c(Cl)cc(Cl)cc2c(Cl)c1CCCl | > 100 µM | > 100 µM | > 100 µM | > 100 µM | > 100 µM | > 100 µM | > 100 µM | > 100 µM | > 100 µM | > 100 µM |  |  | 
COc1ccc(CCNC(=O)CCCCCO)cc1OC | > 100 µM | > 100 µM | > 100 µM | > 100 µM | > 100 µM | > 100 µM | > 100 µM | > 100 µM | > 100 µM | > 100 µM |  |  | 
CO[C@H]1C[C@H](n2cc(C)c(=O)[nH]c2=O)O[C@@H]1CO | > 100 µM | > 100 µM | > 100 µM | > 100 µM | > 100 µM | > 100 µM | > 100 µM | > 100 µM | > 100 µM | > 100 µM |  |  | 
CCOC(=O)Cn1nnc2cc(Nc3nc4ccccc4nc3C(=O)OCC)ccc21 | > 100 µM | > 100 µM | > 100 µM | > 100 µM | > 100 µM | > 100 µM | > 100 µM | > 100 µM | > 100 µM | > 100 µM |  |  | 
CN(C)CCNC(=O)c1cccc2[nH]c(-c3ccncc3)nc12 | > 100 µM | > 30.8 µM | > 100 µM | > 46.9 µM | > 24.3 µM | 21.5 µM | 3.93 µM | > 76.3 µM | 13 µM | 9.82 µM |  |  | 
COc1ccc(NCc2cnc3nc(N)nc(N)c3c2C)cc1 | > 100 µM | > 100 µM | > 100 µM | > 100 µM | > 100 µM | > 100 µM | > 100 µM | > 100 µM | > 100 µM | > 100 µM |  |  | 
COC(=O)c1c(O)ccc2c1c1c(n2Cc2ccccc2OC)C(=O)c2ccccc2C1 | > 100 µM | > 100 µM | > 100 µM | > 100 µM | 78.8 µM | 72.2 µM | > 100 µM | 74.9 µM | > 100 µM | > 100 µM |  |  | 
CCCCCC(O)(CCCCC)CCCCCCCCC1=C(O)c2ccccc2C(=O)C1=O | 21.6 µM | 23.6 µM | 21.8 µM | 29.4 µM | 24.6 µM | 11.5 µM | > 46.2 µM | 23.5 µM | 32 µM | 14.5 µM |  |  | 
CCOC(=O)c1nc2cc(C(F)(F)F)ccc2nc1Nc1ccc(F)cc1 | 39.9 µM | > 100 µM | > 100 µM | > 100 µM | > 100 µM | 61.6 µM | > 100 µM | > 100 µM | > 100 µM | > 100 µM |  |  | 
CC1CC(=O)Nc2ccc(N=NN(C)C)cc2N1C=O (stereo not drawn) | > 100 µM | > 100 µM | > 100 µM | > 100 µM | > 100 µM | > 100 µM | > 100 µM | > 100 µM | > 100 µM | > 100 µM |  |  | 
